Assay results reported in ChEMBL document CHEMBL3045092, “Synthesis and Fungicidal Activity of 2-Imino-3-(4-arylthiazol-2-yl)-thiazolidin-4-ones and Their 5-Arylidene Derivatives” (2000).

Columns and labels:
Format in all cases: functional
Settings in all cases: read-out: GI
Fusarium graminearum = assay: Fungicidal activity against Fusarium graminearum assessed as growth inhibition at 50 ppm after 48 hr relative to untreated control
Pythium aphanidermatum = assay: Fungicidal activity against Pythium aphanidermatum assessed as growth inhibition at 50 ppm after 48 hr relative to untreated control
Gaeumannomyces graminis = assay: Fungicidal activity against Gaeumannomyces graminis assessed as growth inhibition at 50 ppm after 48 hr relative to untreated control
Aspergillus niger = assay: Fungicidal activity against Aspergillus niger assessed as growth inhibition at 50 ppm after 48 hr relative to untreated control
Botrytis cinerea = assay: Fungicidal activity against Botryotinia fuckeliana assessed as growth inhibition at 50 ppm after 48 hr relative to untreated control
Pyricularia oryzae = assay: Fungicidal activity against Magnaporthe oryzae assessed as growth inhibition at 50 ppm after 48 hr relative to untreated control
Pleurotus ostreatus = assay: Fungicidal activity against Pleurotus ostreatus assessed as growth inhibition at 50 ppm after 48 hr relative to untreated control

| SMILES | inhibition of growth at 50 ppm (Fusarium graminearum) [%] | inhibition of growth at 50 ppm (Pythium aphanidermatum) [%] | inhibition of growth at 50 ppm (Gaeumannomyces graminis) [%] | inhibition of growth at 50 ppm (Aspergillus niger) [%] | inhibition of growth at 50 ppm (Botrytis cinerea) [%] | inhibition of growth at 50 ppm (Pyricularia oryzae) [%] | inhibition of growth at 50 ppm (Pleurotus ostreatus) [%] |
| --- | --- | --- | --- | --- | --- | --- | --- |
| N=C1SCC(=O)N1c1nc(-c2ccc(Cl)cc2Cl)cs1 | 48.6 | 0 | 86.7 | 62.8 | 0 | 79.4 | 97.2 |
| N=C1S/C(=C\c2ccccc2Cl)C(=O)N1c1nc(-c2ccc(Cl)cc2)cs1 | 31.8 | 46.2 | 0 | 40.8 | 0 | 0 | 0 |
| N=C1SCC(=O)N1c1nc(-c2ccc([N+](=O)[O-])cc2)cs1 | 2.2 | 8.8 | 26.7 | 56.2 | 0 | 38.1 | 12.4 |
| N=C1S/C(=C\c2ccccc2[N+](=O)[O-])C(=O)N1c1nc(-c2ccccc2)cs1 | 61.9 | 3.8 | 0 | 54.3 | 64.7 | 20.2 | 84.1 |
| N=C1S/C(=C\c2cccc([N+](=O)[O-])c2)C(=O)N1c1nc(-c2cc(F)c(Cl)cc2Cl)cs1 | 45.4 | 33.8 | 0 | 69.3 | 24.7 | 11.7 | 32.6 |
| N=C1SCC(=O)N1c1nc(-c2ccccc2)cs1 | 21.1 | 8.8 | 60 | 54.3 | 3.5 | 58.8 | 82.6 |
| N=C1S/C(=C\c2ccccc2Cl)C(=O)N1c1nc(-c2ccccc2)cs1 | 37.4 | 17.2 | 0 | 23.6 | 27.5 | 0 | 0 |
| N=C1S/C(=C\c2ccccc2[N+](=O)[O-])C(=O)N1c1nc(-c2ccc([N+](=O)[O-])cc2)cs1 | 24.7 | 16.3 | 0 | 62.8 | 33.3 | 3.2 | 7.2 |
| N=C1SCC(=O)N1c1nc(-c2cc(F)c(Cl)cc2Cl)cs1 | 38.8 | 12.5 | 91.3 | 58.8 | 38.2 | 76.3 | 95 |
| N=C1S/C(=C\c2cccc([N+](=O)[O-])c2)C(=O)N1c1nc(-c2ccc([N+](=O)[O-])cc2)cs1 | 51.6 | 0 | 0 | 52.3 | 4.7 | 0 | 29.8 |
| N=C1S/C(=C\c2cccc([N+](=O)[O-])c2)C(=O)N1c1nc(-c2ccc(Cl)cc2)cs1 | 61.9 | 16.3 | 0 | 58.8 | 71.3 | 26.5 | 84.1 |
| N=C1SCC(=O)N1c1nc(-c2ccc(Cl)cc2)cs1 | 29.7 | 3.8 | 51.3 | 52.3 | 0 | 58.8 | 72.4 |
| N=C1S/C(=C\c2ccccc2)C(=O)N1c1nc(-c2cc(F)c(Cl)cc2Cl)cs1 | 38.1 | 0 | 0 | 47.7 | 28.7 | 4.1 | 11.5 |
| N=C1S/C(=C\c2ccccc2[N+](=O)[O-])C(=O)N1c1nc(-c2ccc(Cl)cc2)cs1 | 58.8 | 12.5 | 0 | 60.8 | 66.7 | 14.8 | 84.8 |
| N=C1S/C(=C\c2ccccc2[N+](=O)[O-])C(=O)N1c1nc(-c2cc(F)c(Cl)cc2Cl)cs1 | 48.5 | 0 | 0 | 49.7 | 2 | 50.4 | 15.2 |
| N=C1S/C(=C\c2ccccc2Cl)C(=O)N1c1nc(-c2ccc([N+](=O)[O-])cc2)cs1 | 28 | 28 | 37.1 | 42.7 | 60.8 | 2.1 | 0 |
| N=C1S/C(=C\c2cccc([N+](=O)[O-])c2)C(=O)N1c1nc(-c2ccccc2)cs1 | 20.6 | 25 | 0 | 49.7 | 0 | 3.2 | 5.9 |
